Test system: rumen fluid batch culture
Test: Rumen fluid batch culture test: volatile fatty acid, gas (CH4 + H2), protein and amino acid accumulation (Example 2)
Type: cell-based, steers
Design: HFo (formate) / HAc (acetate) / HPr (propionate) / HiBu (isobutyrate) / HBu (butyrate) / HiVal (isovalerate) / Total / Caloric Value of H2 / Caloric Value of HFo / Caloric Value of HAc / Caloric Value of HPr / Caloric Value of HiBu / Caloric Value of HBu / Caloric Value of HiVal / Caloric Value of CH3: unit not given here
Method: The above Formula IV composition was tested to determine its effectiveness as a feed additive for ruminants. The initial tests were in rumen fluid batch culture systems to determine the effect of the compound on volatile fatty acid/methane ratios (VFA/CH4). […] Test Procedure: A 50/50 mixture of ground corn and ground alfalfa was used as the substrate for the subject rumen fluid batch culture test. The compound (Formula IV ) was present in the rumen fluid in three separate test samples at 8.33, 25 and 75 ppm, respectively. On day 1, rumen fluid was obtained from mature fistulated steers on 50/50 concentrate/roughage diets. The rumen fluid (RF) was strained through three layers of gauze cloth and equilibrated with C02 gas. Wheaton serum vials (125 ml) were prepared ahead with 20 ml continuous batch buffer and 100 mg 50/50 ground corn/ground alfalfa. Controls and compounds (dissolved in acetone) were set up according to desired levels. The vials were kept under C02 gas until 20 ml of the strained RF was added. The vials were sealed and incubated at 39°C for 24 hours in a hot water bath. On successive days, gas samples (0.1 ml) were drawn for gas chromatography analysis before transferring 20 ml of the batch culture to another vial containing 20 ml of buffer, 100 mg substrate, and the corresponding compound. The remaining 20 ml was inoculated with 2 ml 6N HC1 and centrifuged at 15,000 rpm for 15 minutes. Ether extracts were prepared for volatile fatty acid (VFA) analysis. Some minor adjustments were made in the termperatures on the Hewlett-Packard 5750 Gas-Liquid Chromatograph used for VFA analysis when the glass column used was changed from 1/4 inch diameter to 1/8 inch diameter. Injection Port = 220°C Column Oven = 170°C Flame Detector = 250°C Only 4 minutes was needed to record the sample instead of the previous 7 minutes.

[1] = 8.33 μg/ml, total produced on Day 10

For “2,2'-(4,5-diphenyl-2H-imidazol-2-ylidene)bispyridine with CuCl2(1/1) [Formula IV Compound]”, the “HFo (formate)” value (8.33 µg/ml, day 10) was 0.23, the “HPr (propionate)” value (8.33 µg/ml, day 10) was 12.89 and the “HiBu (isobutyrate)” value (8.33 µg/ml, day 10) was 0.21. The “HiVal (isovalerate)” value (8.33 µg/ml, day 10) was 0.05, the Protein (8.33 µg/ml, day 10) was 0 mg/mL and the Total (8.33 µg/ml, day 10) was 40.45. For the same substance, the “Caloric Value of CH3” value (8.33 µg/ml, produced on Day 10) was 33.54, the “Caloric Value of H2” value (8.33 µg/ml, produced on Day 10) was 0 and the “Caloric Value of HAc” value (8.33 µg/ml, produced on Day 10) was 90.96. For the same substance, the “Caloric Value of HBu” value (8.33 µg/ml, produced on Day 10) was 21.42, the “Caloric Value of HFo” value (8.33 µg/ml, produced on Day 10) was 0 and the “Caloric Value of HPr” value (8.33 µg/ml, produced on Day 10) was 87.89. For the same substance, the “Caloric Value of HiBu” value (8.33 µg/ml, produced on Day 10) was 0, the “Caloric Value of HiVal” value (8.33 µg/ml, produced on Day 10) was 0 and the “Caloric Value, Total (VFA's)” value (8.33 µg/ml, produced on Day 10) was 200.27. For the same substance, the “Total Cal in VFA & Gas” value (8.33 µg/ml, produced on Day 10) was 233.79 cal, the “CH4 produced on Day 10” value [1] was 159 and the “H2 produced on Day 10” value [1] was 0. The “HAc (acetate) produced on Day 10” value [1] was 434.4, the “HBu (butyrate) produced on Day 10” value [1] was 41.2 and the “HFo (formate) produced on Day 10” value [1] was 0. The “HPr (propionate) produced on Day 10” value [1] was 240.8, the “HiBu (isobutyrate) produced on Day 10” value [1] was 0 and the “HiVal (isovalerate) produced on Day 10” value [1] was 0. For the same substance, the “Total VFA's produced on Day 10” value [1] was 716.4, the methane production (25 µg/ml, by day 10) was “seemed to be recovering” and the AA (25 µg/ml, day 2) was 0.16 µ Moles/ml. For the same substance, the CH4 (25 µg/ml, day 2) was 197 µ Moles, the H2 (25 µg/ml, day 2) was 0 µ Moles and the “HAc (acetate)” value (25 µg/ml, day 2) was 46.39. For the same substance, the “HBu (butyrate)” value (25 µg/ml, day 2) was 10.94, the “HFo (formate)” value (25 µg/ml, day 2) was 1.24 and the “HPr (propionate)” value (25 µg/ml, day 2) was 12.69. The “HiBu (isobutyrate)” value (25 µg/ml, day 2) was 1.66, the “HiVal (isovalerate)” value (25 µg/ml, day 2) was 2.55 and the Protein (25 µg/ml, day 2) was 0 mg/mL. For the same substance, the Total (25 µg/ml, day 2) was 75.45, the AA (25 µg/ml, day 3) was 0.17 µ Moles/ml and the CH4 (25 µg/ml, day 3) was 166 µ Moles. The H2 (25 µg/ml, day 3) was 0 µ Moles, the “HAc (acetate)” value (25 µg/ml, day 3) was 35.36 and the “HBu (butyrate)” value (25 µg/ml, day 3) was 7.27. For the same substance, the “HFo (formate)” value (25 µg/ml, day 3) was 1.05, the “HPr (propionate)” value (25 µg/ml, day 3) was 12.93 and the “HiBu (isobutyrate)” value (25 µg/ml, day 3) was 1.21. For the same substance, the “HiVal (isovalerate)” value (25 µg/ml, day 3) was 0.59, the Protein (25 µg/ml, day 3) was 0 mg/mL and the Total (25 µg/ml, day 3) was 58.40. The CH4 (25 µg/ml, day 4) was 164 µ Moles, the H2 (25 µg/ml, day 4) was 0 µ Moles and the “HAc (acetate)” value (25 µg/ml, day 4) was 36.52. The “HBu (butyrate)” value (25 µg/ml, day 4) was 6.38, the “HFo (formate)” value (25 µg/ml, day 4) was 0.71 and the “HPr (propionate)” value (25 µg/ml, day 4) was 14.32. The “HiBu (isobutyrate)” value (25 µg/ml, day 4) was 0.86, the “HiVal (isovalerate)” value (25 µg/ml, day 4) was 1.33 and the Total (25 µg/ml, day 4) was 60.11. For the same substance, the CH4 (25 µg/ml, day 5) was 170 µ Moles, the H2 (25 µg/ml, day 5) was 0 µ Moles and the “HAc (acetate)” value (25 µg/ml, day 5) was 34.06. The “HBu (butyrate)” value (25 µg/ml, day 5) was 6.63, the “HFo (formate)” value (25 µg/ml, day 5) was 0.44 and the “HPr (propionate)” value (25 µg/ml, day 5) was 14.87. The “HiBu (isobutyrate)” value (25 µg/ml, day 5) was 0.56, the “HiVal (isovalerate)” value (25 µg/ml, day 5) was 0.78 and the Total (25 µg/ml, day 5) was 57.33. It also gave an AA (25 µg/ml, day 6) of 0.11 µ Moles/ml, a CH4 (25 µg/ml, day 6) of 143 µ Moles and an H2 (25 µg/ml, day 6) of 0 µ Moles. The “HAc (acetate)” value (25 µg/ml, day 6) was 28.98, the “HBu (butyrate)” value (25 µg/ml, day 6) was 4.26 and the “HFo (formate)” value (25 µg/ml, day 6) was 0.68. The “HPr (propionate)” value (25 µg/ml, day 6) was 13.87, the “HiBu (isobutyrate)” value (25 µg/ml, day 6) was 0.53 and the “HiVal (isovalerate)” value (25 µg/ml, day 6) was 0.20. The Protein (25 µg/ml, day 6) was 0.01 mg/mL, the Total (25 µg/ml, day 6) was 48.49 and the AA (25 µg/ml, day 7) was 0.24 µ Moles/ml. For the same substance, the CH4 (25 µg/ml, day 7) was 58 µ Moles, the H2 (25 µg/ml, day 7) was 8 µ Moles and the “HAc (acetate)” value (25 µg/ml, day 7) was 22.54. The “HBu (butyrate)” value (25 µg/ml, day 7) was 5.02, the “HFo (formate)” value (25 µg/ml, day 7) was 0.61 and the “HPr (propionate)” value (25 µg/ml, day 7) was 13.54. For the same substance, the “HiBu (isobutyrate)” value (25 µg/ml, day 7) was 0.75, the “HiVal (isovalerate)” value (25 µg/ml, day 7) was 0.51 and the Protein (25 µg/ml, day 7) was 0 mg/mL. It also gave a Total (25 µg/ml, day 7) of 42.95 and an AA (25 µg/ml, day 8) of 0.22 µ Moles/ml.

From patent publication EP0091090A2, “Bipyridine substituted imidazolidene copper complex and its use in food-producing animals, and bipyridine, 2,2'-(2-imidazolidinylidene) di-copper complex and use in animals” (INTERNATIONAL MINERALS & CHEMICAL CORPORATION, priority 1982, dated 1983)
